The supplement of paper PMC10307832

Experiments:
Experiment in all cases: relative viability (nuclei count vs DMSO), 5 days (fraction); higher = more cells survive
NCI-H2009 = tested on: NCI-H2009
Outline: (§1)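 The day after seeding in 1536-well plates, lung cancer cell lines were treated by pin tool with a single drug, or with a fixed anchor-drug dose together with five library-drug doses (not always all listed) in √10 steps. After 5 days, a combined fix-and-stain solution (final 0.05% Triton X-100, 1% formaldehyde, 1 ug/ml Hoechst) was added. Nuclei counted on 4× images gave relative viability as treated counts over vehicle counts, reported as the median of duplicate plates.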

SW 1573 = tested on: SW 1573
Outline: as §1

NCI-H2023 = tested on: NCI-H2023
Outline: as §1

NCI-H2405 = tested on: NCI-H2405
Outline: as §1

LCLC-103H = tested on: LCLC-103H
Outline: as §1

NCI-H2085 = tested on: NCI-H2085
Outline: as §1

HCC-827 = tested on: HCC-827
Outline: as §1

NCI-H1355 = tested on: NCI-H1355
Outline: as §1

HCC-44 = tested on: HCC-44
Outline: as §1

EPLC-272H = tested on: EPLC-272H
Outline: as §1

PC-14 = tested on: PC-14
Outline: as §1

NCI-H2228 = tested on: NCI-H2228
Outline: as §1

COR-L23 = tested on: COR-L23
Outline: as §1

NCI-H1734 = tested on: NCI-H1734
Outline: as §1

NCI-H2347 = tested on: NCI-H2347
Outline: as §1

HCC-366 = tested on: HCC-366
Outline: as §1

NCI-H1944 = tested on: NCI-H1944
Outline: as §1

HCC-15 = tested on: HCC-15
Outline: as §1

NCI-H1793 = tested on: NCI-H1793
Outline: as §1

NCI-H3122 = tested on: NCI-H3122
Outline: as §1

## Cc1cn(-c2cc(NC(=O)c3ccc(C)c(Nc4nccc(-c5cccnc5)n4)c3)cc(C(F)(F)F)c2)cn1 [Nilotinib] + Cc1nc(NC(=O)N2CCC[C@H]2C(N)=O)sc1-c1ccnc(C(C)(C)C(F)(F)F)c1 [Alpelisib] (partner 2 µM)
NCI-H2009; first compound 0.001 µM
  relative viability: 1.13
NCI-H2009; first compound 0.003162 µM
  relative viability: 1.2
NCI-H2009; first compound 0.01 µM
  relative viability: 1.25
NCI-H2009; first compound 0.03162 µM
  relative viability: 1.14
NCI-H2009; first compound 0.1 µM
  relative viability: 1.14
SW 1573; first compound 0.001 µM
  relative viability: 0.867
SW 1573; first compound 0.003162 µM
  relative viability: 0.764
SW 1573; first compound 0.01 µM
  relative viability: 0.92
SW 1573; first compound 0.03162 µM
  relative viability: 0.594
SW 1573; first compound 0.1 µM
  relative viability: 0.682
NCI-H2023; first compound 0.001 µM
  relative viability: 0.513
NCI-H2023; first compound 0.003162 µM
  relative viability: 0.655
NCI-H2023; first compound 0.01 µM
  relative viability: 0.654
NCI-H2023; first compound 0.03162 µM
  relative viability: 0.558
NCI-H2023; first compound 0.1 µM
  relative viability: 0.478
NCI-H2405; first compound 0.001 µM
  relative viability: 0.808
NCI-H2405; first compound 0.003162 µM
  relative viability: 0.733
NCI-H2405; first compound 0.01 µM
  relative viability: 0.715
NCI-H2405; first compound 0.03162 µM
  relative viability: 0.597
NCI-H2405; first compound 0.1 µM
  relative viability: 0.486
LCLC-103H; first compound 0.001 µM
  relative viability: 1.03
LCLC-103H; first compound 0.003162 µM
  relative viability: 1.09
LCLC-103H; first compound 0.03162 µM
  relative viability: 1
LCLC-103H; first compound 0.1 µM
  relative viability: 0.956
NCI-H2085; first compound 0.001 µM
  relative viability: 0.967
NCI-H2085; first compound 0.003162 µM
  relative viability: 1.05
NCI-H2085; first compound 0.01 µM
  relative viability: 1.07
NCI-H2085; first compound 0.03162 µM
  relative viability: 0.87
NCI-H2085; first compound 0.1 µM
  relative viability: 0.92
HCC-827; first compound 0.001 µM
  relative viability: 1.1
HCC-827; first compound 0.003162 µM
  relative viability: 1.09
HCC-827; first compound 0.01 µM
  relative viability: 1.03
HCC-827; first compound 0.1 µM
  relative viability: 0.92
NCI-H1355; first compound 0.001 µM
  relative viability: 0.764
NCI-H1355; first compound 0.003162 µM
  relative viability: 1.08
NCI-H1355; first compound 0.01 µM
  relative viability: 0.974
NCI-H1355; first compound 0.03162 µM
  relative viability: 0.784
NCI-H1355; first compound 0.1 µM
  relative viability: 0.931
HCC-44; first compound 0.001 µM
  relative viability: 0.708
HCC-44; first compound 0.003162 µM
  relative viability: 0.939
HCC-44; first compound 0.01 µM
  relative viability: 0.898
HCC-44; first compound 0.03162 µM
  relative viability: 0.59
HCC-44; first compound 0.1 µM
  relative viability: 0.74
EPLC-272H; first compound 0.003162 µM
  relative viability: 1.01
EPLC-272H; first compound 0.03162 µM
  relative viability: 0.894
EPLC-272H; first compound 0.1 µM
  relative viability: 0.763
PC-14; first compound 0.003162 µM
  relative viability: 1.08
PC-14; first compound 0.03162 µM
  relative viability: 0.547
PC-14; first compound 0.1 µM
  relative viability: 0.888
NCI-H2228; first compound 0.001 µM
  relative viability: 0.602
NCI-H2228; first compound 0.003162 µM
  relative viability: 0.763
NCI-H2228; first compound 0.01 µM
  relative viability: 0.814
NCI-H2228; first compound 0.03162 µM
  relative viability: 0.813
NCI-H2228; first compound 0.1 µM
  relative viability: 0.455
COR-L23; first compound 0.001 µM
  relative viability: 0.873
COR-L23; first compound 0.03162 µM
  relative viability: 0.901
COR-L23; first compound 0.1 µM
  relative viability: 0.791
NCI-H1734; first compound 0.001 µM
  relative viability: 0.692
NCI-H1734; first compound 0.003162 µM
  relative viability: 0.638
NCI-H1734; first compound 0.01 µM
  relative viability: 0.682
NCI-H1734; first compound 0.03162 µM
  relative viability: 0.551
NCI-H1734; first compound 0.1 µM
  relative viability: 0.507
NCI-H2347; first compound 0.001 µM
  relative viability: 1.01
NCI-H2347; first compound 0.003162 µM
  relative viability: 1.12
NCI-H2347; first compound 0.01 µM
  relative viability: 1.03
NCI-H2347; first compound 0.03162 µM
  relative viability: 0.981
NCI-H2347; first compound 0.1 µM
  relative viability: 1.01
HCC-366; first compound 0.001 µM
  relative viability: 0.312
HCC-366; first compound 0.003162 µM
  relative viability: 0.43
HCC-366; first compound 0.01 µM
  relative viability: 0.428
HCC-366; first compound 0.03162 µM
  relative viability: 0.248
HCC-366; first compound 0.1 µM
  relative viability: 0.342
NCI-H1944; first compound 0.001 µM
  relative viability: 0.867
NCI-H1944; first compound 0.003162 µM
  relative viability: 0.876
NCI-H1944; first compound 0.01 µM
  relative viability: 1.02
NCI-H1944; first compound 0.03162 µM
  relative viability: 0.837
NCI-H1944; first compound 0.1 µM
  relative viability: 0.767
HCC-15; first compound 0.001 µM
  relative viability: 0.824
HCC-15; first compound 0.003162 µM
  relative viability: 1.11
HCC-15; first compound 0.01 µM
  relative viability: 1.05
HCC-15; first compound 0.03162 µM
  relative viability: 0.727
HCC-15; first compound 0.1 µM
  relative viability: 0.616
NCI-H1793; first compound 0.003162 µM
  relative viability: 0.778
NCI-H1793; first compound 0.01 µM
  relative viability: 0.861
NCI-H1793; first compound 0.03162 µM
  relative viability: 0.625
NCI-H1793; first compound 0.1 µM
  relative viability: 0.454
NCI-H3122; first compound 0.001 µM
  relative viability: 0.941
NCI-H3122; first compound 0.003162 µM
  relative viability: 0.925
NCI-H3122; first compound 0.01 µM
  relative viability: 0.87
NCI-H3122; first compound 0.03162 µM
  relative viability: 0.683
NCI-H3122; first compound 0.1 µM
  relative viability: 0.587
